Experimental data as given in patent US10681911B2, “Anthelminthic composition” (AgResearch Limited, priority 2016, dated 2020).

Assays:
[1] = tested on: nematode egg and larval stages in dung; experiment: Mini dung egg hatch-survival assay; conditions: treatments applied to fresh dung on days 0 through 7, harvested days 12-16
Protocol: All the dung samples were then left until day 12 when the first replicates were harvested. The last replicate was sampled on day 16. Hatched larvae were separated from the dung and numerated via microscopic examination. Town supply tap water was used for solution preparation and used as the reference control treatment. Sodium hypochlorite was added to tap-water to form a bleach solution containing 5% w/v NaOCl.

[2] = tested on: eggs of free-living parasitic nematodes; experiment: Egg hatch assay
Protocol: Approximately 125 eggs were place in 24 well plate wells and treatments applied. After 24 hours, unhatched eggs and larvae were numerated by microscopic examination. Town supply tap water was used for solution preparation and used as the reference control treatment Sodium hypochlorite was added to tap-water to form a bleach solution containing 5% w/v NaOCl […]

[3] = format: physicochemical
Haemonchus contortus L3 = conditions: in vivo
Haemonchus controtus L3 = experiment: Petri-dish laboratory study of efficacy against L3; conditions: for Measured efficacy: 24 ml solution, live L3 recovered by Baermann funnel, 10 replicates; for effectiveness in killing L3: result in words

Molecule: OCl [Bleach, Sodium hypochlorite]
- impact on nematode development in dung [1]: small impact on all stage of the nematode development from the egg through to the L1, 2 and 3 stages
- effect on eggs and egg hatching ([2]; after 24 hours, result in words): destroyed all the eggs
- Average of % hatch ([2]; approximately 125 eggs per well, after 24 hours): 0.0%
- Average of larvae ([2]; approximately 125 eggs per well, larvae counted after 24 hours): 0.0
- Average of eggs ([2]; approximately 125 eggs per well, unhatched eggs counted after 24 hours): 0.3

Molecule: [Ca+2].[OH-].[OH-] [Ca(OH)2 0.1%, calcium hydroxide]
- pH 0 [3]: 12.0
- impact on L3 numbers in faeces (Haemonchus contortus L3): Neither ammonium nitrate nor calcium hydroxide applied alone or in combination had any impact on L3 numbers in faeces
- impact on L3 numbers on pasture (Haemonchus contortus L3): neither ammonium nitrate nor calcium hydroxide applied alone had any impact on L3 numbers on pasture
- Measured efficacy (Haemonchus controtus L3; listed as Ca(OH)2 0.100%): 93%
- effectiveness in killing L3 (Haemonchus controtus L3): effective in killing L3

Molecule: [Ca+2].[OH-].[OH-] [Ca(OH)2 0.05%, calcium hydroxide]
- pH 0 [3]: 11.6
- Measured efficacy (Haemonchus controtus L3; listed as Ca(OH)2 0.050%): 69%

Molecule: [Ca+2].[OH-].[OH-] [Ca(OH)2 0.013%, calcium hydroxide]
- pH 0 [3]: 11.0
- Measured efficacy (Haemonchus controtus L3): 28%

Molecule: [Ca+2].[OH-].[OH-] [Ca(OH)2 0.025%, calcium hydroxide]
- pH 0 [3]: 11.3
- Measured efficacy (Haemonchus controtus L3): 43%

Molecule: ammonium nitrate [NH4NO3 1.75%]
- Measured efficacy (Haemonchus controtus L3): −39%

Molecule: ammonium nitrate [NH4NO3 3.5%]
- Measured efficacy (Haemonchus controtus L3): 12%

Molecule: ammonium nitrate [NH4NO3 7%]
- Measured efficacy (Haemonchus controtus L3): 72%

Molecule: ammonium nitrate [NH4NO3 13.5%]
- Measured efficacy (Haemonchus controtus L3): 97%
- effectiveness in killing L3 (Haemonchus controtus L3): effective in killing L3
